Values of other authors as cited in US20230416219A1, “R-MDMA CRYSTAL FORMS” (Mind Medicine, Inc., priority 2022, published 2023).

How the values were obtained:
[1] = test system: parkinsonian animal model
[2] = in vivo
5-HT2A receptors = 5-HT2A receptors (Homo sapiens, UniProt P28223)
SERT = SERT (Homo sapiens, UniProt P31645)
DAT = DAT (Homo sapiens, UniProt Q01959)
Sequence of DAT (Q01959 whole entry, species assumed): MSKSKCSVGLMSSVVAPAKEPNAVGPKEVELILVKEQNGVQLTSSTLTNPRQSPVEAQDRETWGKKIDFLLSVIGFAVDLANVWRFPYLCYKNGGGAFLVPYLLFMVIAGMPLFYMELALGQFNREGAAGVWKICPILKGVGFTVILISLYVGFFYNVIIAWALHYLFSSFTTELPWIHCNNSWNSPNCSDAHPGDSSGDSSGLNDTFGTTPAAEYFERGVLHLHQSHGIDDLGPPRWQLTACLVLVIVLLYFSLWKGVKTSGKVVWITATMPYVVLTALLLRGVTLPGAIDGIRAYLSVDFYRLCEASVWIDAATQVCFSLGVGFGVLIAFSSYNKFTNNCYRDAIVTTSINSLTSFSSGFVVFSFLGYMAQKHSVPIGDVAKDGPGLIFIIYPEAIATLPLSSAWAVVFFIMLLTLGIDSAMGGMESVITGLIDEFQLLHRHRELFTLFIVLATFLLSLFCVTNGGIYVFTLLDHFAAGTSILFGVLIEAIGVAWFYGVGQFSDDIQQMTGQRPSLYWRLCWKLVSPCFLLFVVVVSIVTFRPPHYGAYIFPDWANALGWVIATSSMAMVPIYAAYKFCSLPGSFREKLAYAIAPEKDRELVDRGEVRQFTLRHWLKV

Sequence of 5-HT2A receptors (P28223 whole entry): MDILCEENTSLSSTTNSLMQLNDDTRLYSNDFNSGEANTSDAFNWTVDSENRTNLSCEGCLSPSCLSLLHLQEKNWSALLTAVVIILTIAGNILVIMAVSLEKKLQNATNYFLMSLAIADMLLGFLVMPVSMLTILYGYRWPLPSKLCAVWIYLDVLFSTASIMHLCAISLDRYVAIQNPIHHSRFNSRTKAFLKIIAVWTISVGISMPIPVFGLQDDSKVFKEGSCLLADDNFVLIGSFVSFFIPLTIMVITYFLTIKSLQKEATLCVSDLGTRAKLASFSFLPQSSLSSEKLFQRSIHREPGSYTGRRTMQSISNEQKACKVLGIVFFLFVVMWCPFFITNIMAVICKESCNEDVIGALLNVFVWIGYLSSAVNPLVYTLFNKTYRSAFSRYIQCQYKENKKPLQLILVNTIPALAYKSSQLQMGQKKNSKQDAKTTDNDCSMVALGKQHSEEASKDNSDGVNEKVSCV
Sequence of SERT (P31645 whole entry, species assumed): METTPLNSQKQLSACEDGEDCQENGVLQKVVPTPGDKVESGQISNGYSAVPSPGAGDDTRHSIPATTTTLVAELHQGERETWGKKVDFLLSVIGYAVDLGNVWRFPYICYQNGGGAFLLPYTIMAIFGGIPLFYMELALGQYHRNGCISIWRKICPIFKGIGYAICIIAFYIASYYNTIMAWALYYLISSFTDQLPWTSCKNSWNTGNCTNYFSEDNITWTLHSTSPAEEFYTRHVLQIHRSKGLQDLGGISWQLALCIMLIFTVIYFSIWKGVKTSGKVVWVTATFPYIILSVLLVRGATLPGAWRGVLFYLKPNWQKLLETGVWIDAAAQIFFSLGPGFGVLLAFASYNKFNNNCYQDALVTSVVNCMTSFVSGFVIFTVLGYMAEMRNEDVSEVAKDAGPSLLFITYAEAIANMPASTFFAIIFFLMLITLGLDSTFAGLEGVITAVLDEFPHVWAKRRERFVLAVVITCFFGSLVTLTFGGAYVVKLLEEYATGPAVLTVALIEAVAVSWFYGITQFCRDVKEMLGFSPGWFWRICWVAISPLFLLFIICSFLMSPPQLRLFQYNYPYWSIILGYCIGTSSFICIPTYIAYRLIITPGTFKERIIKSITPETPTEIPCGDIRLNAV

| Structure (SMILES) | duration of good ON-time [1] | severity of peak-dose dyskinesia [1] | hyperthermia [2] | selectivity for 5-HT2A receptors (5-HT2A receptors) | affinity for SERT (SERT) | total duration of ON-time [1] | affinity for DAT (DAT) |
| --- | --- | --- | --- | --- | --- | --- | --- |
| CN[C@H](C)Cc1ccc2c(c1)OCO2 [R-MDMA] | increased | decreased | does not produce hyperthermia | selective compound for 5-HT2A receptors |  |  |  |
| CN[C@@H](C)Cc1ccc2c(c1)OCO2 [S-MDMA] |  | exacerbated |  |  | high affinity | extended | moderate affinity |
